Assay results from PMC9964281, “Identification of CBPA as a New Inhibitor of PD-1/PD-L1 Interaction” (International Journal of Molecular Sciences, 2023).
pKd: −log10 of the molar value.

Molecular target: T1, hPD-L1 (Homo sapiens, UniProt Q9NZQ7)
T1 construct: gene CD274; ectodomain (residues 18–239)
Test: SPR (Biacore X100, CM5 chip with immobilized hPD-L1, steady-state fit)
Assay type: binding

T1 sequence (Q9NZQ7 18-239): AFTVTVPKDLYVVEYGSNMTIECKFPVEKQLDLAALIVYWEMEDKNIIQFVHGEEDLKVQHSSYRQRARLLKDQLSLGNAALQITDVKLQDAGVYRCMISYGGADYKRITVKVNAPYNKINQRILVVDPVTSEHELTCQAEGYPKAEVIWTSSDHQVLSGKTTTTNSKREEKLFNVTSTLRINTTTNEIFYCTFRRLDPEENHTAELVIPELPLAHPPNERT

## Clc1ccc(COc2ccc(CNCc3ccncc3)cc2)cc1 [CBPA, N-{4-[(4-chlorobenzyl)oxy]benzyl}-N-(4-pyridinylmethyl)amine]
  pKd: 4.32
